Patent US12427187B2, “Glucose-responsive insulin conjugates” (priority 2019, dated 2025)
Like-named read-outs stand apart in the source and are kept apart here.

Tests used:
[1] = target: T1, Human macrophage mannose receptor 1 (MRC1) (Homo sapiens, UniProt P22897); test: MRC1 competition binding assay with Eu-mannosylated-BSA; conditions: IP = inflection point, read-out: MRC1 Binding IP
T1 sequence (P22897 19-1456): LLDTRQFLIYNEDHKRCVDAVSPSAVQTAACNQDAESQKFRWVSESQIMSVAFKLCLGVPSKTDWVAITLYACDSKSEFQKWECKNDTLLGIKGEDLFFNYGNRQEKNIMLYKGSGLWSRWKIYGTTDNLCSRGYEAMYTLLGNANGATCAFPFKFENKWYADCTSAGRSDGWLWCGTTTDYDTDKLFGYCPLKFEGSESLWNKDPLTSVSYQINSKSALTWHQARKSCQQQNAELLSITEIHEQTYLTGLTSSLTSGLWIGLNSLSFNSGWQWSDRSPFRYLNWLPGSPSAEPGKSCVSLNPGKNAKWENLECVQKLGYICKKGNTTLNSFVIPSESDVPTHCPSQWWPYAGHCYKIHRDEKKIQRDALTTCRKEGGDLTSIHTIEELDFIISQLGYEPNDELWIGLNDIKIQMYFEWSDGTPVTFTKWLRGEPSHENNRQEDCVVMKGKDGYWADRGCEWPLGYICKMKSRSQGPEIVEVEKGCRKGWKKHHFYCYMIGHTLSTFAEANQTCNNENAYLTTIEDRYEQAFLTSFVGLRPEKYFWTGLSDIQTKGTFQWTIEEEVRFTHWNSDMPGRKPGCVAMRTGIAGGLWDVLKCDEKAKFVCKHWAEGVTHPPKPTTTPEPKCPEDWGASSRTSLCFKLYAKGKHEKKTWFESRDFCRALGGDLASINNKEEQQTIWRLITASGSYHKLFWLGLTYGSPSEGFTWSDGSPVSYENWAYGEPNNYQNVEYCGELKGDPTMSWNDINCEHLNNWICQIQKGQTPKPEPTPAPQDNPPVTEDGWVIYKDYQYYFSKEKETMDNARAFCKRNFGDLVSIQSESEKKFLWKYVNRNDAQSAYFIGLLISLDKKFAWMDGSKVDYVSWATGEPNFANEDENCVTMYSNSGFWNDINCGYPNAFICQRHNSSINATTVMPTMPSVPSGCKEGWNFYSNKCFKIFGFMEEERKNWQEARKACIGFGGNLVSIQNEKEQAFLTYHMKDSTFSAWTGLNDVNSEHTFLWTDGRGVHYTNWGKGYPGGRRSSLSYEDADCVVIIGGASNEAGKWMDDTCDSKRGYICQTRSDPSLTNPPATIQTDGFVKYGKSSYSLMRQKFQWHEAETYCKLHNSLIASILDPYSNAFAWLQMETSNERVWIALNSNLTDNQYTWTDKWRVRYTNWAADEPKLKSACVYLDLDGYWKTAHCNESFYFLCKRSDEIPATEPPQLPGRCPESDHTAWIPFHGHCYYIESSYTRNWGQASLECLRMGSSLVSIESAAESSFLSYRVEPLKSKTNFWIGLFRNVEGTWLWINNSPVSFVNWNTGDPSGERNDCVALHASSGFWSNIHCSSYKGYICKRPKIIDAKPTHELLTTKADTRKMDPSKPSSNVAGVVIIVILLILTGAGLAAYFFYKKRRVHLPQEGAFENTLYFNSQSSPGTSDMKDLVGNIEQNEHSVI
Description: The competition binding assay for Human macrophage mannose receptor 1 (MRC1) utilized a ligand, mannosylated-BSA labeled with the DELFIA Eu-N1-ITC reagent, as reported in the literature. Assay was performed either in a 96-well plate with 100 μL well volume (Method E) or in a 384-well plate with 25 μL well volume (Method F). […] The antibody was incubated in the plate for 1 hr at rt with shaking. The plate was washed with wash buffer 3-5 times followed by addition of MRC1 (2 ng/μl final concentration) in PBS containing 1% stabilizer BSA. The plate was incubated at rt with gentle shaking for 1 hr. The plate was washed three times with wash buffer. The IOC molecules in 12.5 μL (or 50 μL depending on plate format) buffer at appropriate concentrations were added followed by 12.5 μL (or 50 μL) Eu-mannosylated-BSA (0.1 nm final concentration) in 50 mM Tris, pH 7.5 containing 100 mM NaCl, 5 mM CaCl2, 1 mM MgCl2 and 0.2% stabilizer BSA. The plate was incubated for 2 hrs at rt with shaking followed by washing three times with wash buffer.

human IR(B) = human IR(B) (Homo sapiens, UniProt P06213); test: Insulin receptor phosphorylation assay (MSD pIR); type: cell-based; conditions: CHO cells expressing human IR(B), IP = inflection point, read-out: IR Activation IP
Chain of human IR(B) (P06213 28-758 limits assumed): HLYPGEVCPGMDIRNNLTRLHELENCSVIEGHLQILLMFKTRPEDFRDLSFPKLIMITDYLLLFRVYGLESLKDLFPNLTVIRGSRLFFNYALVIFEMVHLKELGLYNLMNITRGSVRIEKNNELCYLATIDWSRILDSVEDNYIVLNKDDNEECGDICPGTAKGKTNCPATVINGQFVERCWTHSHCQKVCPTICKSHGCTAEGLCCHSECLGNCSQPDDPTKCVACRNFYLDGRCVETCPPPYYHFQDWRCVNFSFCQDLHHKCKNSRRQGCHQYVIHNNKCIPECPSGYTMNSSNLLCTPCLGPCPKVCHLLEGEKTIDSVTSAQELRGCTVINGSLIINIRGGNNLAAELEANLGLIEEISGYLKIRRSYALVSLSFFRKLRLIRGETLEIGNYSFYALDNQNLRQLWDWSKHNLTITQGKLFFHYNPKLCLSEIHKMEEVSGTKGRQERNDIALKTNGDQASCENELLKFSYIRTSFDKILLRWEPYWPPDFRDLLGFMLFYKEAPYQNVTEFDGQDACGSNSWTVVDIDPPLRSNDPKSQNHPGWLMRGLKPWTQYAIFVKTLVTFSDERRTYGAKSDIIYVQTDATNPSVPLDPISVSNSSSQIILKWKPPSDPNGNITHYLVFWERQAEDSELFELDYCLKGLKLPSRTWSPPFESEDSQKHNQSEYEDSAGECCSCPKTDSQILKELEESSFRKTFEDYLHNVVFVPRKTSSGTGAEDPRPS
Chain of human IR(B) (P06213 763-1382 partner limits assumed): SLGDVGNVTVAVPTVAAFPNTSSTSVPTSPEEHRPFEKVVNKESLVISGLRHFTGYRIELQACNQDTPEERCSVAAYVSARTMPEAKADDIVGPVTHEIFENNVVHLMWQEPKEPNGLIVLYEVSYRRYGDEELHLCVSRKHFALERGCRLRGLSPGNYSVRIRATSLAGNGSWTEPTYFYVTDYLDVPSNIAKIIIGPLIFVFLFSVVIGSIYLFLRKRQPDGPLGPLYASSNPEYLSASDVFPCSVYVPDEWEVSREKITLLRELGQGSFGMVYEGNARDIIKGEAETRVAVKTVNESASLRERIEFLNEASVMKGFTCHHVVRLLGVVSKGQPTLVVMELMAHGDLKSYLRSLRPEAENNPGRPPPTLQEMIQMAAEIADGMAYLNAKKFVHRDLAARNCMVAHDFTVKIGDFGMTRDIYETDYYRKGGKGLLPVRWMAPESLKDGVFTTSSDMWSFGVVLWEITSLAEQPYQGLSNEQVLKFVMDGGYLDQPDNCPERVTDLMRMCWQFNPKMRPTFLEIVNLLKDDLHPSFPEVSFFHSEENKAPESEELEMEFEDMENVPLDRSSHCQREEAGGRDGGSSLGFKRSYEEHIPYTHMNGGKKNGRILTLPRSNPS
Description: CHO cells stably expressing human IR(B) were in grown in F12 cell media containing 10% FBS and antibiotics (G418, Penicillin/Strepavidin) for at least 8 hr, and then serum starved by switching to F12 media containing 0.5% BSA (insulin-free) in place of FBS for overnight growth. Cells were harvested and frozen in aliquots for use in the MSD pIR assay. Briefly, the frozen cells were plated in either 96-well (40,000 cells/well, Methods A) or 384-well (10,000 cells/well, Method B) clear tissue culture plates and allowed to recover. IOC molecules at the appropriate concentrations were added and the cells incubated for 8 min at 37° C. The media was aspirated and chilled MSD cell lysis buffer was added as per MSD kit instructions. The cells were lysed on ice for 40 min and the lysate then mixed for 10 min at rt. The lysate was transferred to the MSD kit pIR detection plates. The remainder of the assay was carried out following the MSD kit recommended protocol.
The in vitro biological activities towards insulin receptor (IR) were measured by either ligand competition assays or functional phosphorylation assays, as described above, labeled as following: Method A: IR phosphorylation assay based on 96-well; Method B: IR phosphorylation assay based on 384-well with automated liquid dispense; Method C: cell-based IR binding assay; Method D: SPA IR binding assay method E; Method E: MRC1 assay was performed in a 96-well plate; Method F: MRC1 assay was performed in a 384-well plate.

[2] = target: human insulin receptor type B (IR(B)) (Homo sapiens, UniProt P06213); test: IR binding assay, scintillation proximity assay on cell membranes (Method D); conditions: Method D: SPA IR binding assay; IP = inflection point
Chain of human insulin receptor type B (IR(B)) (P06213 28-758 limits assumed): as the sequence (P06213 28-758 limits assumed) above
Chain of human insulin receptor type B (IR(B)) (P06213 763-1382 partner limits assumed): as the sequence (P06213 763-1382 partner limits assumed) above
Description: Method D: IR binding assay was run in a scintillation proximity assay (SPA) in 384-well format using cell membranes prepared from CHO cells overexpressing human IR(B) grown in F12 media containing 10% FBS and antibiotics (G418, Penicillin/Strepavidin). Cell membranes were prepared in 50 mM Tris buffer, pH 7.8 containing 5 mM MgCl2. The assay buffer contained 50 mM Tris buffer, pH 7.5, 150 mM NaCl, 1 mM CaCl2, 5mgCl2, 0.1% BSA and protease inhibitors (Complete-Mini-Roche). Cell membranes were added to WGA PVT PEI SPA beads (5 mg/mL final concentration) followed by addition of IOC molecules at appropriate concentrations.

[3] = Method B: IR phosphorylation assay, 384-well with automated liquid dispense
[4] = Method A: IR phosphorylation assay, 96-well

| SMILES | IC50 ([1]; Method E: 96-well plate) | EC50 (human IR(B); [3]) | IC50 ([1]; Method F: 384-well plate) | EC50 (human IR(B); [4]) | IC50 [2] |
| --- | --- | --- | --- | --- | --- |
| CC(=O)[C@H](CCCCN)NC(=O)CCCCCNC(=O)[C@H](CCCCNC(=O)CCCC(=O)N[C@@H](CCC(=O)N(CCOC1O[C@H](CO)[C@@H](O)[C@H](O)[C@@H]1O)CCOC1O[C@H](CO)[C@@H](O)[C@H](O)[C@@H]1O)C(=O)N(CCOC1O[C@H](CO)[C@@H](O)[C@H](O)[C@@H]1O)CCOC1O[C@H](CO)[C@@H](O)[C@H](O)[C@@H]1O)NC(=O)[C@H](CCCCNC(=O)CCCC(=O)N[C@@H](CCC(=O)N(CCOC1O[C@H](CO)[C@@H](O)[C@H](O)[C@@H]1O)CCOC1O[C@H](CO)[C@@H](O)[C@H](O)[C@@H]1O)C(=O)N(CCOC1O[C@H](CO)[C@@H](O)[C@H](O)[C@@H]1O)CCOC1O[C@H](CO)[C@@H](O)[C@H](O)[C@@H]1O)NC(=O)CCCC(=O)N[C@@H](CCC(=O)N(CCOC1O[C@H](CO)[C@@H](O)[C@H](O)[C@@H]1O)CCOC1O[C@H](CO)[C@@H](O)[C@H](O)[C@@H]1O)C(=O)N(CCOC1O[C@H](CO)[C@@H](O)[C@H](O)[C@@H]1O)CCOC1O[C@H](CO)[C@@H](O)[C@H](O)[C@@H]1O (some centres unmarked) [IOC-62] | 11.5 nM | 2.11 nM | – | – | – |
| CC(=O)[C@H](CCCCN)NC(=O)[C@H](CCCCNC(=O)CCCCC(=O)N(CCOC1O[C@H](CO)[C@@H](O)[C@H](O)[C@@H]1O)CCOC1O[C@H](CO)[C@@H](O)[C@H](O)[C@@H]1O)NC(=O)[C@H](CCCNC(=O)CCCCC(=O)N(CCOC1O[C@H](CO)[C@@H](O)[C@H](O)[C@@H]1O)CCOC1O[C@H](CO)[C@@H](O)[C@H](O)[C@@H]1O)NC(=O)CCCCC(=O)N(CCOC1O[C@H](CO)[C@@H](O)[C@H](O)[C@@H]1O)CCOC1O[C@H](CO)[C@@H](O)[C@H](O)[C@@H]1O (some centres unmarked) [IOC-44] | 31.3 nM | – | – | 8.4 nM | – |
| CC(=O)[C@H](CCCCN)NC(=O)CCCCCNC(=O)[C@H](CCCCNC(=O)CCCCCNC(=O)CN(CC(=O)NCCO[C@H]1O[C@H](CO[C@H]2O[C@H](CO)[C@@H](O)[C@H](O)[C@@H]2O)[C@@H](O)[C@H](O[C@H]2O[C@H](CO)[C@@H](O)[C@H](O)[C@@H]2O)[C@@H]1O)CC(=O)NCCO[C@H]1O[C@H](CO[C@H]2O[C@H](CO)[C@@H](O)[C@H](O)[C@@H]2O)[C@@H](O)[C@H](O[C@H]2O[C@H](CO)[C@@H](O)[C@H](O)[C@@H]2O)[C@@H]1O)NC(=O)[C@H](CCCCNC(=O)CCCCCNC(=O)CN(CC(=O)NCCO[C@H]1O[C@H](CO[C@H]2O[C@H](CO)[C@@H](O)[C@H](O)[C@@H]2O)[C@@H](O)[C@H](O[C@H]2O[C@H](CO)[C@@H](O)[C@H](O)[C@@H]2O)[C@@H]1O)CC(=O)NCCO[C@H]1O[C@H](CO[C@H]2O[C@H](CO)[C@@H](O)[C@H](O)[C@@H]2O)[C@@H](O)[C@H](O[C@H]2O[C@H](CO)[C@@H](O)[C@H](O)[C@@H]2O)[C@@H]1O)NC(=O)CCCCCNC(=O)CN(CC(=O)NCCO[C@H]1O[C@H](CO[C@H]2O[C@H](CO)[C@@H](O)[C@H](O)[C@@H]2O)[C@@H](O)[C@H](O[C@H]2O[C@H](CO)[C@@H](O)[C@H](O)[C@@H]2O)[C@@H]1O)CC(=O)NCCO[C@H]1O[C@H](CO[C@H]2O[C@H](CO)[C@@H](O)[C@H](O)[C@@H]2O)[C@@H](O)[C@H](O[C@H]2O[C@H](CO)[C@@H](O)[C@H](O)[C@@H]2O)[C@@H]1O [IOC-42] | – | 1.72 nM | 1.99 nM | – | 1.95 nM |
| CC(=O)[C@H](CCCCN)NC(=O)CCCCC(=O)N[C@@H](CCC(=O)NCCO[C@@H]1O[C@@H](C)[C@@H](O)[C@@H](O)[C@@H]1O)C(=O)N[C@@H](CCC(=O)NCCO[C@@H]1O[C@@H](C)[C@@H](O)[C@@H](O)[C@@H]1O)C(=O)N[C@@H](CCC(=O)NCCO[C@@H]1O[C@@H](C)[C@@H](O)[C@@H](O)[C@@H]1O)C(=O)NCCO[C@@H]1O[C@@H](C)[C@@H](O)[C@@H](O)[C@@H]1O [IOC-19] | 16 nM | – | – | 0.81 nM | – |

Continued, values first:

| IC50 ([1]; Method E: 96-well plate) | EC50 (human IR(B); [3]) | IC50 ([1]; Method F: 384-well plate) | EC50 (human IR(B); [4]) | IC50 [2] | SMILES |
| --- | --- | --- | --- | --- | --- |
| 1.89 nM | 1.12 nM | – | – | – | CC(=O)[C@H](CCCCN)NC(=O)CCCCCNC(=O)[C@H](CCCCNC(=O)CCCCCNC(=O)CN(CC(=O)N(CCOC1O[C@H](CO)[C@@H](O)[C@H](O)[C@@H]1O)CCOC1O[C@H](CO)[C@@H](O)[C@H](O)[C@@H]1O)CC(=O)N(CCOC1O[C@H](CO)[C@@H](O)[C@H](O)[C@@H]1O)CCOC1O[C@H](CO)[C@@H](O)[C@H](O)[C@@H]1O)NC(=O)[C@H](CCCCNC(=O)CCCCCNC(=O)CN(CC(=O)N(CCOC1O[C@H](CO)[C@@H](O)[C@H](O)[C@@H]1O)CCOC1O[C@H](CO)[C@@H](O)[C@H](O)[C@@H]1O)CC(=O)N(CCOC1O[C@H](CO)[C@@H](O)[C@H](O)[C@@H]1O)CCOC1O[C@H](CO)[C@@H](O)[C@H](O)[C@@H]1O)NC(=O)CCCCCNC(=O)CN(CC(=O)N(CCOC1O[C@H](CO)[C@@H](O)[C@H](O)[C@@H]1O)CCOC1O[C@H](CO)[C@@H](O)[C@H](O)[C@@H]1O)CC(=O)N(CCOC1O[C@H](CO)[C@@H](O)[C@H](O)[C@@H]1O)CCOC1O[C@H](CO)[C@@H](O)[C@H](O)[C@@H]1O (some centres unmarked) [IOC-61] |
| – | 1.98 nM | 2.58 nM | – | – | CC(=O)[C@H](CCCCN)NC(=O)CCCCCNC(=O)[C@H](CCCCNC(=O)CCCCCNC(=O)CN(CC(=O)NCCO[C@@H]1O[C@@H](C)[C@@H](O)[C@@H](O)[C@@H]1O)CC(=O)N(CCOC1C[C@H](CO)[C@@H](O)[C@H](O)[C@@H]1O)CCOC1O[C@H](CO)[C@@H](O)[C@H](O)[C@@H]1O)NC(=O)[C@H](CCCCNC(=O)CCCCCNC(=O)CN(CC(=O)NCCO[C@@H]1O[C@@H](C)[C@@H](O)[C@@H](O)[C@@H]1O)CC(=O)N(CCOC1C[C@H](CO)[C@@H](O)[C@H](O)[C@@H]1O)CCOC1O[C@H](CO)[C@@H](O)[C@H](O)[C@@H]1O)NC(=O)CCCCCNC(=O)CN(CC(=O)NCCO[C@@H]1O[C@@H](C)[C@@H](O)[C@@H](O)[C@@H]1O)CC(=O)N(CCOC1O[C@H](CO)[C@@H](O)[C@H](O)[C@@H]1O)CCOC1O[C@H](CO)[C@@H](O)[C@H](O)[C@@H]1O (some centres unmarked) [IOC-59] |
| – | 0.84 nM | 13.1 nM | – | – | CC(=O)[C@H](CCCCN)NC(=O)CCCCC(=O)NCC(=O)N[C@@H](CCC(=O)N[C@@H](CCC(=O)NCCCCCC(=O)N(CC(=O)NCCO[C@H]1O[C@H](CO)[C@@H](O)[C@H](O)[C@@H]1O)CC(=O)NCCO[C@@H]1O[C@@H](C)[C@@H](O)[C@@H](O)[C@@H]1O)C(=O)NCCCCCC(=O)N(CC(=O)NCCO[C@H]1O[C@H](CO)[C@@H](O)[C@H](O)[C@@H]1O)CC(=O)NCCO[C@@H]1O[C@@H](C)[C@@H](O)[C@@H](O)[C@@H]1O)C(=O)NCCCCCC(=O)N(CC(=O)NCCO[C@H]1O[C@H](CO)[C@@H](O)[C@H](O)[C@@H]1O)CC(=O)NCCO[C@@H]1O[C@@H](C)[C@@H](O)[C@@H](O)[C@@H]1O [IOC-50] |
| – | 1.17 nM | 0.87 nM | – | – | CC(=O)[C@H](CCCCN)NC(=O)CCCCCNC(=O)[C@H](CCCCNC(=O)CCCCC(=O)NCCCC[C@@H](C(=O)NCCO[C@@H]1O[C@@H](C)[C@@H](O)[C@@H](O)[C@@H]1O)N(CC(=O)NCCO[C@@H]1O[C@@H](C)[C@@H](O)[C@@H](O)[C@@H]1O)CC(=O)NCCO[C@@H]1O[C@@H](C)[C@@H](O)[C@@H](O)[C@@H]1O)NC(=O)[C@H](CCCCNC(=O)CCCCC(=O)NCCCC[C@@H](C(=O)NCCO[C@@H]1O[C@@H](C)[C@@H](O)[C@@H](O)[C@@H]1O)N(CC(=O)NCCO[C@@H]1O[C@@H](C)[C@@H](O)[C@@H](O)[C@@H]1O)CC(=O)NCCO[C@@H]1O[C@@H](C)[C@@H](O)[C@@H](O)[C@@H]1O)NC(=O)CCCCC(=O)NCCCC[C@@H](C(=O)NCCO[C@@H]1O[C@@H](C)[C@@H](O)[C@@H](O)[C@@H]1O)N(CC(=O)NCCO[C@@H]1O[C@@H](C)[C@@H](O)[C@@H](O)[C@@H]1O)CC(=O)NCCO[C@@H]1O[C@@H](C)[C@@H](O)[C@@H](O)[C@@H]1O [IOC-58] |
